Literature values, collected in article PMC12119673, “Apoptotic cell death induced by copper (II), manganese (II) and silver (I) complexes containing bridging dicarboxylate and 1,10-phenanthroline ligands: one of the multi-modes of anticancer activity?” (Biometals, 2025).

Tests used:
Parameters in all cases: method as in Kellett et al. [2011]; Slator et al. [2017]
[1] = tested on: HT29, SW480 and SW620; conditions: ref Kellett et al. [2011], Slator et al. [2017]; cited from earlier work
[2] = tested on: HaCaT cells; conditions: HaCaT vs colorectal cancer lines; ref Kellett et al. [2011]; Slator et al. [2017]; cited from earlier work
[3] = tested on: Galleria Mellonella; conditions: ref Kellett et al. [2011], Slator et al. [2017]; cited from earlier work

## O.O.O=C([O-])CCCCCCC(=O)[O-].[Mn+2].[Mn+2].c1cnc2c(c1)ccc1cccnc12.c1cnc2c(c1)ccc1cccnc12.c1cnc2c(c1)ccc1cccnc12.c1cnc2c(c1)ccc1cccnc12 [[Mn2(μ-oda)(phen)4(H2O)2]^2+]
[1]
  Cytotoxicity towards colorectal cancers: nano-molar cytotoxicity
[2]
  Reduction in potency towards non-cancerous cells: almost tenfold reduction in potency
[3]
  In vivo tolerance: well-tolerated
